For assay [1], the system named is WT DLD-1. The note with it: 4 day compound dosing; read-out: WT DLD-1 prolif 4 d IC50; cited from earlier work.
Assay [2] has as its system BRCA2 −/− DLD-1. The note with it: 4 day compound dosing; read-out: BRCA2 −/− DLD-1 prolif 4 d IC50; cited from earlier work.
Assay [3] addresses hERG (Homo sapiens, UniProt Q12809). The note with it: cited from earlier work.
In assay [4] the test system is NCI-N87 xenograft (gastric cancer cell line). Description: Antitumor test (dose titration) in vivo, NCI-N87 xenograft model (Example 6). Also noted: species or system Female Nude mice. As for the experimental part: Female Nude mice (Charles River) aged 5-8 weeks were used, following 7 days acclimatisation before entry into the study. 5×10^6 NCI-N87 tumor cells (gastric cancer cell line) (1:1 in Matrigel) were implanted subcutaneously onto the flank of the female Nude mice. When tumors reached approximately 250 mm^3, similar-sized tumors were randomly assigned to treatment groups as shown in Table 10:
The dose of compound for each animal was calculated based on the individual body weight on the day of dosing. DS-1062 and AZD5305 were dosed on the same day, with DS-1062 being administered approximately 5 hour post the PO dose of AZD5305. DS-1062 was administered as a single dose at 10 mg/kg on day 1, and AZD5305 was administered at 1, 0.1 or 0.01 mg/kg QD for 21 days. Duration of dosing was for 21 days.

Assay [5] has the same test system. The assay can be described thus: Antitumor test (dose regimen optimization) in vivo, NCI-N87 xenograft model (Example 7). Also noted: species or system Female Nude mice. As for the experimental part: Female Nude mice (Charles River) aged 5-8 weeks were used, following 7 days acclimatisation before entry into the study. 5×10^6 NCI-N87 tumor cells (gastric cancer cell line) (1:1 in Matrigel) were implanted subcutaneously onto the flank of the female Nude mice. When tumors reached approximately 250 mm^3, similar-sized tumors were randomly assigned to treatment groups as shown in Table 12:
The dose of compound for each animal was calculated based on the individual body weight on the day of dosing. […]

For assay [6], the system named is CTG-3718 ovarian PDX. The assay can be described thus: Antitumor test in vivo, CTG-3718 xenograft model (Example 8). On the set-up: species or system nude mice. The text has this:
The human patient-derived xenograft (PDX) model, CTG-3718, was established from fragments of freshly resected tumor of an ovarian cancer patient who relapsed on treatment with PARP inhibitor talazoparib. This PDX was obtained in accordance with appropriate consent procedures. This ovarian PDX model was subcutaneously passaged in vivo as fragments from animal to animal in nude mice. When tumors reached approximately 250 mm^3, similar-sized tumors were randomly assigned to treatment groups as shown in Table 14: […]

In assay [7] the test system is NCI-N87 xenograft (gastric cancer cell line). Description: Antitumor test in vivo, NCI-N87 xenograft model (Example 4). Also noted: species or system Female Nude mice. As for the experimental part:
Female Nude mice (Charles River) aged 5-8 weeks were used, following 7 days acclimatisation before entry into the study. 5×10^6 NCI-N87 tumor cells (gastric cancer cell line) (1:1 in Matrigel) were implanted subcutaneously onto the flank of the female Nude mice. When tumors reached approximately 250 mm^3, similar-sized tumors were randomly assigned to treatment groups as shown in Table 6:
(§1) The dose of compound for each animal was calculated based on the individual body weight on the day of dosing. DS-1062 and AZD5305 were dosed on the same day, with DS-1062 being administered approximately 5 hour post the PO dose of AZD5305. DS-1062 was administered as a single dose at 10 mg/kg on day 1, and AZD5305 was administered at 1 mg/kg QD for 21 days. Duration of dosing was for 21 days.
(§2) Tumor growth inhibition (TGI) was calculated as follows:
(§3) where MTV=mean tumor volume.
(§4) Statistical significance was evaluated using one-tailed t-test of (log (relative tumor volume)=log (final vol/start vol)) at the day of final measure, comparing to vehicle control.

Assay [8] relates to CTG-3303 TNBC PDX. The assay can be described thus: Antitumor test in vivo, TNBC patient derived xenograft model (Example 5). Also noted: species or system Female Nude mice. The note with it: for TGI % day 46: CTG-3303 TNBC PDX; for percentage of mice achieving a complete response (tumor volume <20 mm^3): day 46 post treatment.
From the text: Female Nude mice (Charles River) aged 5-8 weeks were used, following 7 days acclimatisation before entry into the study. The human patient-derived xenograft (PDX) model, CTG-3303, was established from fragments of freshly resected tumor of a triple negative breast cancer (TNBC) patient whom relapsed on treatment with PARP inhibitor talazoparib. This PDX was obtained in accordance with appropriate consent procedures. This TNBC PDX model was subcutaneously passaged in vivo as fragments from animal to animal in nude mice. When tumors reached approximately 250 mm^3, similar-sized tumors were randomly assigned to treatment groups as shown in Table 8:
as §1, §2, §3, §4
In addition, the percentage of mice in each treatment group achieving a complete response (defined as tumor volume <20 mm^3) at day 46 post treatment were calculated and shown in FIG. 19B. Monotherapy with DS-1062 at 10 mg/kg led to 1 out 8 mice (12.5%) achieving a complete response at day 46 post treatment. AZD5305 monotherapy led to 0 out 8 mice (0%) achieving a complete response at day 46 post treatment. Combination treatment of AZD5305 with DS-1062 at 10 mg/kg led to 2 out 8 mice (25%) achieving a complete response at day 46 post treatment and led to higher complete response rates than either respective monotherapy.

The mark [9] stands for this setting: AZD5305 1 mg/kg PO QD for 21 days, 1 mg/kg.
Where [10] appears, read: DS-1062 10 mg/kg IV single dose, 10 mg/kg.

hERG, sequence (Q12809 whole entry): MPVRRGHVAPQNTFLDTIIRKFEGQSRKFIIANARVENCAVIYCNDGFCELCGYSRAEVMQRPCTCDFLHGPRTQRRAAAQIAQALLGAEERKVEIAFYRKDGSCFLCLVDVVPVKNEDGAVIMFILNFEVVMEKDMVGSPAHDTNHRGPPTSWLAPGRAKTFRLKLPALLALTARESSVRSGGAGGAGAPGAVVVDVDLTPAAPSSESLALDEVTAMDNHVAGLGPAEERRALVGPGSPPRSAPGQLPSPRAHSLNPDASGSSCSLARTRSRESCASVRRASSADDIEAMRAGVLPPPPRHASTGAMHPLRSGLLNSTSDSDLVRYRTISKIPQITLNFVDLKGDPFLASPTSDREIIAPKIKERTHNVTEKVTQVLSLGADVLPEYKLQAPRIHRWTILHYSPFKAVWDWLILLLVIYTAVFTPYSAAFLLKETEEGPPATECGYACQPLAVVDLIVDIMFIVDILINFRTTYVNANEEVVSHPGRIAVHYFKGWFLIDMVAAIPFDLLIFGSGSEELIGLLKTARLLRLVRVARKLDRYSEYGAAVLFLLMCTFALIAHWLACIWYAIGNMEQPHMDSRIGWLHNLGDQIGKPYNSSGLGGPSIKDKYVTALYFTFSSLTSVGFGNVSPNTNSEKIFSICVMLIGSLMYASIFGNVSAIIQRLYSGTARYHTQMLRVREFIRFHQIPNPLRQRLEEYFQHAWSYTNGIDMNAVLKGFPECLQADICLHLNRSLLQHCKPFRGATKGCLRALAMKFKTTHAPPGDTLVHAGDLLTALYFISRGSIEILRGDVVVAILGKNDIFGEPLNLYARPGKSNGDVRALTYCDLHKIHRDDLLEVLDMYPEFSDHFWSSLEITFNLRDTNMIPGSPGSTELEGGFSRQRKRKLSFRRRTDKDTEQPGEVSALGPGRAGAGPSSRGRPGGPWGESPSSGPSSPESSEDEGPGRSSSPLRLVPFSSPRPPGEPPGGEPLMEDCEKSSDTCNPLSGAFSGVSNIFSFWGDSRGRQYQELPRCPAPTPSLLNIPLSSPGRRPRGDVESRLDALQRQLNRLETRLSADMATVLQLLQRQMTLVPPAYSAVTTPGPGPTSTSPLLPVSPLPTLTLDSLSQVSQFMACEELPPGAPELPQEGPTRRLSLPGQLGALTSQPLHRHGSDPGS

In the case of `CCc1cc2ncc(CN3CCN(c4ccc(C(=O)NC)nc4C(F)(F)F)CC3)cc2[nH]c1=O` [Example 30, 5-[4-[(7-ethyl-6-oxo-5H-1,5-naphthyridin-3-yl)methyl]piperazin-1-yl]-N-methyl-6 (trifluoromethyl)pyridine-2-carboxamide], the figures for the IC50 in assay [1], in assay [2] and in assay [3] were above 30 µM, 4 nM and above 40 µM, respectively.

For the molecule `CCc1cc2ncc(CN3CCN(c4ccc(C(=O)NC)nc4)CC3)cc2[nH]c1=O` [Example 4, 5-[4-[(7-ethyl-6-oxo-5H-1,5-naphthyridin-3-yl)methyl]piperazin-1-yl]-N-methyl-pyridine-2-carboxamide], in assay [4] (setting [9]), the “TGI % day 49” value stood at 18%. In assay [5] (AZD5305 1 mg/kg PO QD (21 days), 1 mg/kg), the “TGI % day 52” value is listed as 26%. Besides, the “TGI % day 28” value in assay [6] (AZD5305 0.1 mg/kg PO QD (21 days), 0.1 mg/kg) is on record as −16%. The values for the IC50 in assay [1] and in assay [2] were above 30 µM and above 17 nM, respectively. Also, the “TGI % day 19” value in assay [7] (setting [9]) is 22%. In addition, the “TGI % day 46” value in assay [8] (setting [9]) stood at 28%. Besides, the “percentage of mice achieving a complete response (tumor volume <20 mm^3)” value in assay [8] (AZD5305 1 mg/kg QD) is listed as 0%.

For the molecule `CNC(=O)c1ccc(N2CCN(Cc3ccc4nc(CC(F)(F)F)c(=O)[nH]c4c3)CC2)c(F)n1` [Example 28, 6-fluoro-N-methyl-5-(4-((3-oxo-2-(2,2,2-trifluoroethyl)-3,4-dihydroquinoxalin-6-yl)methyl)piperazin-1-yl) picolinamide], the IC50 in assay [1] is above 30 µM; in assay [2] it was 27 nM.

As to `CCc1nc2ccc(CN3CCN(c4ccc(C(=O)NC)nc4Cl)CC3)cc2[nH]c1=O` [Example 14, 6-chloro-5-[4-[(2-ethyl-3-oxo-4H-quinoxalin-6-yl)methyl]piperazin-1-yl]-N-methyl-pyridine-2-carboxamide], the IC50 in assay [1] is above 30 µM; in assay [2] it was 6 nM.

In the case of `CCc1cc2ncc(CN3CCN(c4ccc(C(=O)NC)nc4C(F)F)CC3)cc2[nH]c1=O` [Example 29, 6-(difluoromethyl)-5-[4-[(7-ethyl-6-oxo-5H-1,5-naphthyridin-3-yl)methyl]piperazin-1-yl]-N-methyl-pyridine-2-carboxamide], the IC50 in assay [1] is above 30 µM; in assay [2], 7 nM.

Regarding `CCc1cc2cnc(CN3CCN(c4ccc(C(=O)NC)nc4F)CC3)cc2[nH]c1=O` [Example 2, 5-[4-[(3-ethyl-2-oxo-1H-1,6-naphthyridin-7-yl)methyl]piperazin-1-yl]-6-fluoro-N-methyl-pyridine-2-carboxamide], the values for the IC50 in assay [1] and in assay [2] were above 30 µM and 8 nM, respectively.

Turning to `CCc1nc2ccc(CN3CCN(c4ccc(C(=O)NC)nc4)CC3)cc2[nH]c1=O` [Example 11, 5-[4-[(2-ethyl-3-oxo-4H-quinoxalin-6-yl)methyl]piperazin-1-yl]-N-methyl-pyridine-2-carboxamide], the results for the IC50 in assay [1] and in assay [2] were above 30 µM and 184 nM, respectively.

B1: DS-1062: anti-TROP2 antibody-drug conjugate; exatecan-derivative drug-linker conjugated to the anti-TROP2 antibody via a thioether bond; DAR ~4 (conjugate, chains of the INN, looked up)
VH: QVQLVQSGAEVKKPGASVKVSCKASGYTFTTAGMQWVRQAPGQGLEWMGWINTHSGVPKYAEDFKGRVTISADTSTSTAYLQLSSLKSEDTAVYYCARSGFGSSYWYFDVWGQGTLVTVSS
VL: DIQMTQSPSSLSASVGDRVTITCKASQDVSTAVAWYQQKPGKAPKLLIYSASYRYTGVPSRFSGSGSGTDFTLTISSLQPEDFAVYYCQQHYITPLTFGQGTKLEIK
modifications: exatecan-derivative drug-linker, DAR ~4
As for B1, the “TGI % day 49” value in assay [4] (setting [10]) was determined as 75%. Further, the “TGI % day 52” value in assay [5] (setting [10]) is 84%. Moreover, in assay [6] (setting [10]), the “TGI % day 28” value was determined as 72%. The “TGI % day 19” value in assay [7] (setting [10]) worked out at 82%. The “TGI % day 46” value in assay [8] (setting [10]) worked out at 88%. The “percentage of mice achieving a complete response (tumor volume <20 mm^3)” value in assay [8] (DS-1062 10 mg/kg) worked out at 12.5%.
